Consider 39 compounds from patent publication US10815222B2, “Compounds for use in the treatment of kinetoplastid infection” (C.N.C.C.S. S.c.a.r.l. COLLEZIONE NAZIONALE DEI COMPOSTI …, priority 2016, dated 2020).

Broadly, the EC50 is the concentration needed to bring the measured effect to its halfway point.

This assay relates to Bloodstream form of Trypanosoma brucei, strain Lister 427. Put plainly: Trypanosoma brucei growth inhibition assay (CellTiter-Glo, 24 h). The assay is classed as cell-based. Particulars: Trypanosoma brucei; T. Brucei Growth Inibition Assay, class symbols; read-out: T. Brucei GI EC50. The method, boiled down:
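Growth read-out was CellTiter-Glo luminescence after 24 h at 37 °C incubation of 1500 bloodstream-form Lister 427 trypanosomes per well with compound, in supplemented IMDM containing 10% FBS and at most 0.25% DMSO.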
For orientation: In ATP-based viability assays light output follows the ATP content of the culture.
In the case of `COc1ccc2cc(C)n(CC(=O)N3CCN(Cc4ccn(C)n4)CCC3c3ncc(-c4cc5ccccc5nc4OC)[nH]3)c2c1` (stereo not drawn) [2-(6-methoxy-2-methyl-1H-indol-1-yl)-1-(7-(5-(2-methoxyquinolin-3-yl)-1H-imidazol-2-yl)-4-((1-methyl-1H-pyrazol-3-yl)methyl)-1,4-diazepan-1-yl)ethan-1-one], the EC50 was less than 100 nM.

Regarding `Cn1cc(CC(=O)N2CCN(CC3CCOC3)CC2c2ncc(-c3ccc4ccccc4c3)[nH]2)c2ccccc21` (stereo not drawn), the concentration giving a half-maximal response (EC50) fell in the range of 100 to 500 nM.

For `COc1ccc2nc(C(F)(F)F)n(CC(=O)N3CC[C@H](OC)C[C@H]3c3ncc(-c4cc5ccccc5nc4OC)[nH]3)c2c1` [1-((2S,4S)-4-methoxy-2-(5-(2-methoxyquinolin-3-yl)-1H-imidazol-2-yl)piperidin-1-yl)-2-(6-methoxy-2-(trifluoromethyl)-1H-benzo[d]imidazol-1-yl)ethan-1-one], the EC50 was less than 100 nM.

For `COc1nc2ccccc2cc1-c1cnc(C2CN(CC3CCOC3)CCN2C(=O)Cc2cnc3ccccn23)[nH]1` (stereo not drawn), the EC50 was in the range of 1010 to 5000 nM.

Take `COc1nc2ccccc2cc1-c1cnc(C2COCCN2C(=O)Cn2c(C)nc3ccccc32)[nH]1` (stereo not drawn): the EC50 is 1010 to 5000 nM.

For the compound `COc1nc2ccccc2cc1-c1cnc(C2CN(C(=O)OCc3ccccc3)CCN2C(=O)Cn2c(C)nc3ccccc32)[nH]1` (stereo not drawn), the 50% effective concentration (EC50) lay within 1010 to 5000 nM.

As for `COc1ccc2nc(C(F)(F)F)n(CC(=O)N3CCN(CCc4ccnn4C)CCC3c3ncc(-c4cc5ccccc5nc4OC)[nH]3)c2c1` (stereo not drawn) [2-(6-methoxy-2-(trifluoromethyl)-1H-benzo[d]imidazol-1-yl)-1-(7-(5-(2-methoxyquinolin-3-yl)-1H-imidazol-2-yl)-4-(2-(1-methyl-1H-pyrazol-5-yl)ethyl)-1,4-diazepan-1-yl)ethan-1-one], the half-maximal effective concentration (EC50) is less than 100 nM.

For the compound `CN1CCN(C(=O)Cc2ccccc2)C(c2ncc(-c3ccc4ccccc4c3)[nH]2)C1` (stereo not drawn), the EC50 lay within 1010 to 5000 nM.

Regarding `COc1ccc(-c2ccc(C(=O)N3CCN(CC4CCOC4)CC3c3ncc(-c4cc5ccccc5nc4OC)[nH]3)o2)cc1` (stereo not drawn), the EC50 is 1010 to 5000 nM.

On to `Cc1csc(CC(=O)N2CCN(Cc3ccccc3)CC2c2ncc(-c3ccc4ccccc4c3)[nH]2)n1` (stereo not drawn), for which the EC50 lay within 1010 to 5000 nM.

Regarding `COc1ccc2nc(C(F)(F)F)n(CC(=O)N3CC[C@H](N4CCOCC4)C[C@H]3c3ncc(-c4cc5ccccc5nc4OC)[nH]3)c2c1` [2-(6-methoxy-2-(trifluoromethyl)-1H-benzo[d]imidazol-1-yl)-1-((2S,4S)-2-(5-(2-methoxyquinolin-3-yl)-1H-imidazol-2-yl)-4-morpholinopiperidin-1-yl)ethan-1-one], the EC50 was less than 100 nM.

Take `COc1ccc2nc(C(F)(F)F)n(CC(=O)N3CC[C@H](N(C)Cc4nccs4)C[C@H]3c3ncc(-c4cc5ccccc5nc4OC)[nH]3)c2c1` [2-(6-methoxy-2-(trifluoromethyl)-1H-benzo[d]imidazol-1-yl)-1-((2S,4S)-2-(5-(2-methoxyquinolin-3-yl)-1H-imidazol-2-yl)-4-(methyl(thiazol-2-ylmethyl)amino)piperidin-1-yl)ethan-1-one]: the EC50 was less than 100 nM.

Take `COc1nc2ccccc2cc1-c1cnc(C2COCCN2C(=O)Cn2nnc3ccccc32)[nH]1` (stereo not drawn): the EC50 lay in the range of 1010 to 5000 nM.

In the case of `COc1nc2ccccc2cc1-c1cnc(C2CN(CC3CCOC3)CCN2C(=O)Cn2c(C)nc3cc(F)c(F)cc32)[nH]1` (stereo not drawn), the half-maximal effective concentration (EC50) lay within 100 to 500 nM.

Regarding `COc1ccc2cc(C)n(CC(=O)N3CCN(CC4CCOC4)C[C@H]3c3ncc(-c4cc5ccccc5nc4OC)[nH]3)c2c1` (stereo partly drawn) [2-(6-methoxy-2-methyl-1H-indol-1-yl)-1-((2S)-2-(5-(2-methoxyquinolin-3-yl)-1H-imidazol-2-yl)-4-((tetrahydrofuran-3-yl)methyl)piperazin-1-yl)ethan-1-one], the EC50 was less than 100 nM.

With `COc1ccc2nc(C(F)(F)F)n(CC(=O)N3CC[C@H](NC4CCOC4)C[C@H]3c3ncc(-c4cc5ccccc5nc4OC)[nH]3)c2c1` (stereo partly drawn) [2-(6-methoxy-2-(trifluoromethyl)-1H-benzo[d]imidazol-1-yl)-1-((2S,4S)-2-(5-(2-methoxyquinolin-3-yl)-1H-imidazol-2-yl)-4-((tetrahydrofuran-3-yl)amino)piperidin-1-yl)ethan-1-one], the EC50 was less than 100 nM.

For the compound `COc1nc2ccccc2cc1-c1cnc(C2CN(CC3CCOC3)CCN2C(=O)c2cc(C)n(Cc3ccccc3)n2)[nH]1` (stereo not drawn), the EC50 lay in the range of 1010 to 5000 nM.

Regarding `COc1ccc2nc(C(F)(F)F)n(CC(=O)N3CC[C@H](NCc4nccs4)C[C@H]3c3ncc(-c4cc5ccccc5nc4OC)[nH]3)c2c1` [2-(6-methoxy-2-(trifluoromethyl)-1H-benzo[d]imidazol-1-yl)-1-((2S,4S)-2-(5-(2-methoxyquinolin-3-yl)-1H-imidazol-2-yl)-4-((thiazol-2-ylmethyl)amino)piperidin-1-yl)ethan-1-one], the EC50 was less than 100 nM.

With `COc1ccc2c(c1)nc(C(F)(F)F)n2CC(=O)N1CCN(CC2CCOC2)C[C@H]1c1ncc(-c2cc3ccccc3nc2OC)[nH]1` (stereo partly drawn) [2-(5-methoxy-2-(trifluoromethyl)-1H-benzo[d]imidazol-1-yl)-1-((2S)-2-(5-(2-methoxyquinolin-3-yl)-1H-imidazol-2-yl)-4-((tetrahydrofuran-3-yl)methyl)piperazin-1-yl)ethan-1-one], the EC50 is less than 100 nM.

In the case of `COc1ccc2nc(C(F)(F)F)n(CC(=O)N3CCN(CCc4csc(C)n4)C[C@H]3c3ncc(-c4cc5ccccc5nc4OC)[nH]3)c2c1` [(S)-2-(6-methoxy-2-(trifluoromethyl)-1H-benzo[d]imidazol-1-yl)-1-(2-(5-(2-methoxyquinolin-3-yl)-1H-imidazol-2-yl)-4-(2-(2-methylthiazol-4-yl)ethyl)piperazin-1-yl)ethan-1-one], the EC50 was less than 100 nM.

Regarding `COc1ccc2nc(C)n(CC(=O)N3CCN(C4CCOCC4)C[C@H]3c3ncc(-c4cc5ccccc5nc4OC)[nH]3)c2c1`, the EC50 was in the range of 100 to 500 nM.

For `COc1nc2ccccc2cc1-c1cnc(C2CN(CC3CCCC3)CCN2C(=O)Cc2c(C)[nH]c3ccc(F)cc23)[nH]1` (stereo not drawn), the EC50 fell in the range of 100 to 500 nM.

With `O=C(Cc1c[nH]c2ncccc12)N1CCOCC1c1ncc(-c2ccc3ccccc3c2)[nH]1` (stereo not drawn), the concentration for a half-maximal effect (EC50) was in the range of 1010 to 5000 nM.

For `COc1nc2ccccc2cc1-c1cnc(C2CN(CC3CCOC3)CCN2C(=O)Cn2nc(C)c3ccccc3c2=O)[nH]1` (stereo not drawn), the EC50 fell in the range of 510 to 1000 nM.

Consider `COc1nc2ccccc2cc1-c1cnc(C2CN(Cc3ccccc3)CCN2C(=O)CC2=C(C)NC3C=CC=CC23)[nH]1` (stereo not drawn), for which the EC50 was 100 to 500 nM.

As to `COc1nc2ccccc2cc1-c1cnc([C@@H]2CN(Cc3nccs3)CCN2C(=O)Cn2c(C(F)(F)F)nc3ccccc32)[nH]1` [(S)-1-(2-(5-(2-methoxyquinolin-3-yl)-1H-imidazol-2-yl)-4-(thiazol-2-ylmethyl)piperazin-1-yl)-2-(2-(trifluoromethyl)-1H-benzo[d]imidazol-1-yl)ethan-1-one], the EC50 was less than 100 nM.

Take `CN1CCN(S(=O)(=O)Cc2ccccc2)C(c2ncc(-c3ccc4ccccc4c3)[nH]2)C1` (stereo not drawn) [1-(benzylsulfonyl)-4-methyl-2-(5-(naphthalen-2-yl)-1H-imidazol-2-yl)piperazine]: the EC50 fell in the range of 1010 to 5000 nM.

For the compound `COc1nc2ccccc2cc1-c1cnc(C2CN(CC3CC3)CCN2C(=O)CC2=C(C)NC3C=CC=CC23)[nH]1` (stereo not drawn), the EC50 lay within 100 to 500 nM.

`CN1CCN(C(=O)Cc2c[nH]c3ncccc23)C(c2ncc(-c3ccc4ccccc4c3)[nH]2)C1` (stereo not drawn): the EC50 lay in the range of 1010 to 5000 nM.

Regarding `COc1ccc2nc(C(F)(F)F)n(CC(=O)N3CCN(Cc4ccon4)CCC3c3ncc(-c4cc5ccccc5nc4OC)[nH]3)c2c1` (stereo not drawn) [1-(4-(isoxazol-3-ylmethyl)-7-(5-(2-methoxyquinolin-3-yl)-1H-imidazol-2-yl)-1,4-diazepan-1-yl)-2-(6-methoxy-2-(trifluoromethyl)-1H-benzo[d]imidazol-1-yl)ethan-1-one], the EC50 is less than 100 nM.

As for `CCC(=O)CCCN1CCN(C(=O)C2CCN(C)CC2)C(c2ncc(-c3ccc4ccccc4c3)[nH]2)C1` (stereo not drawn), the concentration for a half-maximal effect (EC50) was 1010 to 5000 nM.

Turning to `COc1cccc(CCC(=O)N2CCN(CC3CCOC3)CC2c2ncc(-c3cc4ccccc4nc3OC)[nH]2)c1` (stereo not drawn), the EC50 is 1010 to 5000 nM.

Regarding `COc1ccc2c(c1)C(CC(=O)N1CCN(CCc3ccccc3)CC1c1ncc(-c3ccc4ccccc4c3)[nH]1)C(=O)N2` (stereo not drawn), the EC50 fell in the range of 510 to 1000 nM.

Consider `COc1nc2ccccc2cc1-c1cnc([C@@H]2CN(CC3CCOC3)CCN2C(=O)Cn2c(C(F)(F)F)nc3ncccc32)[nH]1` (stereo partly drawn), for which the EC50 was in the range of 1010 to 5000 nM.

In the case of `COc1cc2nc(C(F)(F)F)n(CC(=O)N3CCN(CC4CCOC4)C[C@H]3c3ncc(-c4cc5ccccc5nc4OC)[nH]3)c2cc1OC` (stereo partly drawn) [2-(5,6-dimethoxy-2-(trifluoromethyl)-1H-benzo[d]imidazol-1-yl)-1-((2S)-2-(5-(2-methoxyquinolin-3-yl)-1H-imidazol-2-yl)-4-((tetrahydrofuran-3-yl)methyl)piperazin-1-yl)ethan-1-one], the EC50 was less than 100 nM.

Regarding `COc1nc2ccccc2cc1-c1cnc([C@@H]2CN(CC3COC3)CCN2C(=O)Cn2c(C(F)(F)F)nc3ccccc32)[nH]1` [(S)-1-(2-(5-(2-methoxyquinolin-3-yl)-1H-imidazol-2-yl)-4-(oxetan-3-ylmethyl)piperazin-1-yl)-2-(2-(trifluoromethyl)-1H-benzo[d]imidazol-1-yl)ethan-1-one], the 50% effective concentration (EC50) is less than 100 nM.

Regarding `COc1ccc2nc(C(F)(F)F)n(CC(=O)N3CC[C@H](N[C@@H]4CCOC4)C[C@H]3c3ncc(-c4cc5ccccc5nc4OC)[nH]3)c2c1` [2-(6-methoxy-2-(trifluoromethyl)-1H-benzo[d]imidazol-1-yl)-1-((2S,4S)-2-(5-(2-methoxyquinolin-3-yl)-1H-imidazol-2-yl)-4-(((R)-tetrahydrofuran-3-yl)amino)piperidin-1-yl)ethan-1-one], the EC50 was less than 100 nM.

For the compound `COc1ccc2nc(C(F)(F)F)n(CC(=O)N3CC[C@H](NCc4cncn4C)C[C@H]3c3ncc(-c4cc5ccccc5nc4OC)[nH]3)c2c1` [2-(6-methoxy-2-(trifluoromethyl)-1H-benzo[d]imidazol-1-yl)-1-((2S,4S)-2-(5-(2-methoxyquinolin-3-yl)-1H-imidazol-2-yl)-4-(((1-methyl-1H-imidazol-5-yl)methyl)amino)piperidin-1-yl)ethan-1-one], the 50% effective concentration (EC50) was less than 100 nM.

Take `COc1ccc2nc(C)n(CC(=O)N3CCN(CC4CCOC4)C[C@H]3c3ncc(-c4ccc5ccccc5n4)[nH]3)c2c1` (stereo partly drawn): the EC50 was in the range of 1010 to 5000 nM.
